For one series, the system named is 45-bp dsDNA. The series can be described thus: DNA intercalation: acridine orange displacement from dsDNA by fluorescence polarization. The series is classed as binding. The procedure, abridged:
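Acridine orange displacement from 45-bp dsDNA in HEN buffer (10 mM HEPES pH 7.5, 1 mM EDTA, 100 mM NaCl), compounds at 30 µM final, 30 min incubation. Fluorescence polarization read in mP, buffer-corrected, G-factor 1.0; mitoxantrone 50 µM and DMSO as controls.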
In general terms: In fluorescence polarisation assays a small probe gives low polarisation when free and higher when bound to something large.

A further series has as its target T1, cGAS/dsDNA complex (Mus musculus, UniProt Q8C6L5).
T1 construct: full-length (for high-throughput screening) and residues 147–507 (for structural study) of cGAS; His6-SUMO (N, cleaved yes); made in house; host or cells: E. coli BL21(DE3) RIL
The series is described as follows: Isothermal titration calorimetry, compound titrated into cGAS/dsDNA complex. The format is binding. As for the experimental part:
ITC measurements were performed at 25 °C using a MicroCal auto-iTC200 calorimeter (MicroCal, LLC). Purified truncated mouse cGAS was dialyzed against 40 mM HEPES buffer (pH 7.5) and 300 mM NaCl for 24 h at 4 °C. Dialysis led to some precipitation, which were removed through centrifugation followed by collection of the supernatant. The concentration of the protein in supernatant was measured using Pierce® BCA protein assay. The protein was flash frozen in liquid N2 and stored at −80 °C. For the ITC assay, the dialyzed protein was prediluted to 20 µM in the dialysis buffer and diluted to a final concentration of 10 µM in a final buffer containing 40 mM HEPES, 1% DMSO, 150 mM NaCl, 0.01% Tween-20 and + /− dsDNA 10 µM and + /− ATP or GTP 1 mM. Then, 2 μl RU.365 100 µM, dissolved in the buffer aforementioned, were injected into 0.2 ml of protein in the chamber every 150 s. Data for raw ITC and thermodynamic curves, each from one experiment, were downloaded after analysis using Affinimeter software and plotted using GraphPad Prism (7.01). The software calculates error bars as an indication of the contribution of the raw data noise that is determined from the integral of the standard deviation of the baseline during the injection.

For series [1], the system named is cGAS activity in dsDNA-stimulated RAW macrophages. The series is described as follows: Cellular luciferase assay, interferon-responsive reporter in dsDNA-stimulated RAW macrophages. Particulars: Mus musculus, Macrophage, dsDNA-activated RAW cells. The format is cell-based. As for the experimental part:
The sequence and annealing conditions of the dsDNA used is described above. Typically, 0.4 µg or 0.6 µg of dsDNA was used to stimulate RAW-Lucia ISG-KO-TREX1/ISG-KO-cGAS or RAW-Lucia ISG cells, respectively, which equated to 90% of maximal luciferase activity observed. dsDNA stimulation of RAW macrophages and subsequent luciferase measurements were performed with or without the addition of small molecules at indicated concentrations in each figure, or with DMSO as vehicle control. For the dose curve experiments, serial dilutions of inhibitors were applied to 6.7 × 10^5 cells, plated in 24-well dishes, and co-stimulated with 0.4 µg of dsDNA. In subsequent experiments using inhibitors in RAW cells, the small molecules were used at concentrations representing the derived EC75 values, while co-stimulated with one of the following: 0.4 µg dsDNA, 50 nM 5′ppp-HP20 hairpin RNA (a kind gift from Dr Anna Pyle, Yale University; sequence located in Supplementary Table 5), 10 µM cGAMP, or 100 U ml^−1 murine recombinant Ifnb (R&D Systems). dsDNA was transfected using Lipofectamine LTX. 5′ppp-HP20 RNA was transfected using Lipofectamine 2000. Cells were harvested 24 h post-transfection, washed with PBS, and lysed in 1× Luciferase Cell Lysis Buffer (Pierce).
The minimum numbers of biological and technical replicates for the luciferase assays were two and three, respectively. Analysis of luminescence values were evaluated for outliers (one standard deviation above and below the mean) for each biological replicate, and the resulting means were used to generate graphs in GraphPad Prism (v. 7.0c); where applicable, an unpaired t-test with Welch’s correction was used to compare the results of each individual compound to dsDNA or other stimulant. The experimental variances observed within control samples (untreated or vehicle) and treated samples were similar.

Another series relates to RAW 264.7. The series can be described thus: Cytotoxicity, CellTiter-Glo ATP quantitation at 72 h. The format is cell-based. The conditions noted are these: for LD50: RAW macrophages, 72 h, percent viability. As for the experimental part: Small-molecule compounds were serially diluted to concentrations spanning the range tested in the response curves were added to 6.7 × 10^5 RAW-Blue macrophages plated 16 h prior in 96-well dishes, then harvested 72 h after compound addition. ATP was measured using CellTiter Glo Viability Assay (Promega) using 50 µM Tamoxifen (Sigma) as a positive control for cytotoxicity. Viability values were generated using vehicle (DMSO) or the first dose (RU.521) as 100% and Tamoxifen as 0%. Outliers were removed as described previously.

The mark [2] stands for this setting: cGAS in presence of dsDNA, no ATP/GTP.

The structures appear in SMILES notation. Where “and” joins values, the source holds several entries; their conditions need not be identical. Identical values can stand only once.

Here are results for two molecules from publication PMC5622107, “Small molecule inhibition of cGAS reduces interferon expression in primary macrophages from autoimmune mice” (Nature Communications, 2017).

T1 sequence (Q8C6L5 147-507, one chain of several): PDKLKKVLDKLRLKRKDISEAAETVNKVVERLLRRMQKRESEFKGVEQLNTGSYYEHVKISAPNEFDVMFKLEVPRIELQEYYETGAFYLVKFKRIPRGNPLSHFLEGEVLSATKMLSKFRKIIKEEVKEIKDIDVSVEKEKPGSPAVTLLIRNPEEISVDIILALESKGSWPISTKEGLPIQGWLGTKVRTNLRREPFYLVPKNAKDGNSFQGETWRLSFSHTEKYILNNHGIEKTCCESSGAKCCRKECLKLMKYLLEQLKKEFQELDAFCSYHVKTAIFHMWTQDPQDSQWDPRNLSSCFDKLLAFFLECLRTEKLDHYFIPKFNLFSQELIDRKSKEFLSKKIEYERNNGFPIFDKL

In general, Kd refers to the concentration at which binding is half-saturated. As usually defined, the IC50 is the concentration that gives 50% inhibition. Lower therefore signals higher potency. In the case of `Cc1nn(-c2nc3ccccc3[nH]2)c(O)c1C1OC(=O)c2ccccc21` (centres unmarked) [RU166365], the “% intercalation at 30 µM” value with 45-bp dsDNA (Supplementary Table 2, acridine orange displacement compared to mitoxantrone) was -6.7%. For the same molecule, in the series with 45-bp dsDNA (Supplementary Table 2, compound 30 µM), the Polarization stood at 264 mP. Besides, the results for the “T*ΔS” value at cGAS/dsDNA complex (cGAS in presence of dsDNA), on cGAS/dsDNA complex (cGAS/dsDNA + ATP 1 mM) and at cGAS/dsDNA complex (cGAS/dsDNA + GTP 1 mM) were -4.504 kcal/mol, -2.493 kcal/mol and -3.668 kcal/mol, respectively. Moreover, the rM on cGAS/dsDNA complex (cGAS in presence of dsDNA) is recorded as 0.9075; on cGAS/dsDNA complex (cGAS/dsDNA + ATP 1 mM), 0.9605; on cGAS/dsDNA complex (cGAS/dsDNA + GTP 1 mM) it was 0.9257. Moreover, the ΔG was -9.813 kcal/mol on cGAS/dsDNA complex (cGAS in presence of dsDNA), -9.524 kcal/mol on cGAS/dsDNA complex (cGAS/dsDNA + ATP 1 mM) and -8.902 kcal/mol on cGAS/dsDNA complex (cGAS/dsDNA + GTP 1 mM). For the same molecule, the ΔH on cGAS/dsDNA complex (cGAS in presence of dsDNA) was -14.32 kcal/mol; on cGAS/dsDNA complex (cGAS/dsDNA + ATP 1 mM) it was -12.02 kcal/mol; at cGAS/dsDNA complex (cGAS/dsDNA + GTP 1 mM) it was -12.57 kcal/mol. The Kd was 64.1 nM and 64 nM on cGAS/dsDNA complex (setting [2]); 104 nM on cGAS/dsDNA complex (cGAS/dsDNA + 1 mM ATP); 298 nM at cGAS/dsDNA complex (cGAS/dsDNA + 1 mM GTP). In series [1], this molecule yielded an IC50 of 4980 nM. Also, the “LD50 over cellular IC50” value with RAW 264.7 stood at 9 fold. In addition, the LD50 with RAW 264.7 (listed as RU.365) is 45 µM.
In the case of `Cc1nn(-c2nc3ccc(Cl)c(Cl)c3[nH]2)c(O)c1C1OC(=O)c2ccccc21` (centres unmarked) [RU320521, 3-[1-(6,7-dichloro-1H-benzimidazol-2-yl)-5-hydroxy-3-methyl-pyrazol-4-yl]-3H-isobenzofuran-1-one], the “DNA intercalation or interaction” value in the series with 45-bp dsDNA (acridine orange competition screen) was “did not show any indication that it could act in a manner that could intercalate or interact with DNA”. Besides, on cGAS/dsDNA complex (cGAS in presence of dsDNA), the “T*ΔS” value is -6.134 kcal/mol, the rM stood at 0.8071, the ΔG is -10.15 kcal/mol and the ΔH was -16.29 kcal/mol. Also, on cGAS/dsDNA complex (setting [2]), the Kd worked out at 36.2 nM. Besides, inhibition in series [1] was half-maximal at 700 nM (IC50). In addition, in the series with RAW 264.7, the “LD50 over cellular IC50” value is listed as 88 fold. The LD50 with RAW 264.7 (listed as RU.521) was 62 µM.
